Experimental data reported in ChEMBL document CHEMBL6096672, “In Silico Enabled Discovery of KAI-11101, a Preclinical DLK Inhibitor for the Treatment of Neurodegenerative Disease and Neuronal Injury” (J Med Chem, 2025).
In brackets after ≈: the same amount, converted by molar mass. Activity calls are given as the source filed them. No cut-off for these calls is given here.

What was measured:
[1] = Half life in mouse at 5 mg/kg, po; type: ADME, organism-based; conditions: in vivo
[2] = Intrinsic clearance in mouse liver microsomes; type: ADME, Microsome; conditions: read-out: CLH
[3] = Intrinsic clearance in human liver microsomes; type: ADME, Microsome; conditions: read-out: CLH
[4] = Efflux ratio in MDCK-MDR1 cells; type: ADME, cell-based, Canis lupus familiaris; conditions: dog
[5] = Kinetic solubility of compound at pH 6.8; type: physicochemical; conditions: buffer, read-out: Kinetic_solubility
[6] = Apparent permeability across apical to basal side in MDCK-MDR1 cells; type: ADME, cell-based, Canis lupus familiaris; conditions: dog
[7] = Ratio of unbound drug concentration in brain to plasma of mouse at 5 mg/kg; type: ADME, organism-based; conditions: brain and plasma, read-out: K(p,uu,brain)
[8] = Clearance in mouse at 5 mg/kg, po; type: ADME, organism-based; conditions: in vivo
[9] = Oral bioavailability in mouse at 5 mg/kg; type: ADME, organism-based; conditions: in vivo
[10] = Inhibition of DLK in C57/Bl6 mouse DRG neuron model of paclitaxel-induced axon degeneration assessed as decrease in p-cJun level measured after 20 hrs by immunofluorescence based analysis; type: cell-based
[11] = Inhibition of GST-tagged DLK (1 to 520 residues)(unknown origin) using MKK4 as substrate preincubated for 60 mins followed by substrate/ATP addition measured after 30 mins by HTRF assay; parameters: species or system Homo sapiens
[12] = Protection against paclitaxel-induced axon degeneration in C57/Bl6 mouse DRG neurons measured after 72 hrs by immunofluorescence based analysis; type: functional, cell-based; conditions: drg neuron
[13] = Inhibition of human DLK transfected in HEK293-T-REx cells assessed as decrease in JNK phosphorylation incubated for 5 hrs by HTRF assay; type: cell-based
[14] = Inhibition of GST-tagged LZK (1 to 966 residues)(unknown origin) using MKK4 as substrate preincubated for 60 mins followed by substrate/ATP addition measured after 30 mins by HTRF assay; parameters: species or system Homo sapiens
[15] = Protection against paclitaxel-induced axon degeneration in C57/Bl6 mouse DRG neurons at 0.74 uM measured after 72 hrs by immunofluorescence based analysis relative to control; type: functional; conditions: C57/Bl6, DRG neuron
[16] = Clearance in IV-dosed rat; type: ADME; conditions: in vivo
[17] = Clearance in IV-dosed dog; type: ADME, Canis lupus familiaris; conditions: in vivo
[18] = Oral bioavailability in mouse; type: ADME, organism-based; conditions: in vivo
[19] = Drug metabolism in PO-dosed dog plasma assessed as formation of N-methylated metabolites; type: ADME, Canis lupus familiaris
CYP3A4 = CYP3A4 (Homo sapiens, UniProt P08684); assay: Time dependent inhibition of CYP3A4 (unknown origin) at 30 uM incubated for 30 mins relative to control; type: ADME; conditions: read-out: TDI
[20] = Volume of distribution at steady state in IV-dosed mouse; type: ADME; conditions: in vivo, read-out: Vdss
[21] = Intrinsic clearance in dog liver microsomes; type: ADME, Canis lupus familiaris, Microsome; conditions: read-out: CLH
[22] = Unbound fraction in mouse brain at 3 to 75 mg/kg, po measured after 2 hrs; type: ADME, organism-based; conditions: in vivo, dose 3-75 mg/kg
[23] = Half life in IV-dosed rat; type: ADME; conditions: in vivo
[24] = Volume of distribution at steady state in IV-dosed dog; type: ADME, Canis lupus familiaris; conditions: in vivo, read-out: Vdss
[25] = Ratio of unbound drug concentration in brain to plasma of CD-1 mouse at 5 to 75 mg/kg, po; type: ADME, organism-based; conditions: brain and plasma, dose 5-75 mg/kg, read-out: K(p,uu,brain)
CYP3A [26] = target: T1, CYP3A (Homo sapiens, UniProt P08684+P20815+P24462+Q9HB55); assay: Binding affinity to CYP3A in human liver microsomes assessed as inhibition constant; type: ADME, Microsome
[27] = Drug metabolism in cynomolgous monkey hepatocytes assessed as formation of N-methylated metabolites; type: ADME, cell-based, Macaca fascicularis, Hepatocyte; conditions: cynomolgus monkey
CYP3A [28] = target: T1, CYP3A; assay: Binding affinity to CYP3A in human liver microsomes assessed as inactivation constant; type: ADME, Microsome
[29] = In vivo inhibition of DLK in mouse cerebellum at 3 to 75 mg/kg, po measured after 2 hrs; type: functional, organism-based
[30] = Drug metabolism in human hepatocytes assessed as formation of N-methylated metabolites; type: ADME, cell-based, Hepatocyte
[31] = Half life in IV-dosed cynomolgous monkey; type: ADME, Macaca fascicularis; conditions: cynomolgus monkey, in vivo
[32] = Half life in IV-dosed dog; type: ADME, Canis lupus familiaris; conditions: in vivo
[33] = Oral bioavailability in cynomolgous monkey; type: ADME, organism-based, Macaca fascicularis; conditions: cynomolgus monkey, in vivo
[34] = Cytotoxicity against human HepG2 cells; type: toxicity, cell-based
[35] = Volume of distribution at steady state in IV-dosed rat; type: ADME; conditions: in vivo, read-out: Vdss
[36] = Clearance in IV-dosed cynomolgous monkey; type: ADME, Macaca fascicularis; conditions: cynomolgus monkey, in vivo
[37] = target: Voltage-gated inwardly rectifying potassium channel KCNH2 (Homo sapiens, UniProt Q12809); assay: Inhibition of hERG by patch-clamp method; type: toxicity
[38] = Total drug concentration in mouse brain at 3 to 75 mg/kg, po measured after 2 hrs; type: ADME, organism-based; conditions: dose 3-75 mg/kg, read-out: Ct
[39] = Ratio of unbound drug concentration in brain to plasma of rat; type: ADME; conditions: brain and plasma, read-out: K(p,uu,brain)
[40] = Oral bioavailability in dog; type: ADME, organism-based, Canis lupus familiaris; conditions: in vivo
[41] = Drug metabolism in rat hepatocytes assessed as formation of N-methylated metabolites; type: ADME, cell-based, Hepatocyte
[42] = Half life in IV-dosed mouse; type: ADME; conditions: in vivo
[43] = Oral bioavailability in rat; type: ADME, organism-based; conditions: in vivo
[44] = Total unbound drug concentration in mouse brain at 3 to 75 mg/kg, po measured after 2 hrs; type: ADME, organism-based; conditions: in vivo, dose 3-75 mg/kg
[45] = Clearance in IV-dosed mouse; type: ADME; conditions: in vivo
[46] = Drug metabolism in dog hepatocytes assessed as formation of N-methylated metabolites; type: ADME, cell-based, Canis lupus familiaris, Hepatocyte
[47] = Volume of distribution at steady state in IV-dosed cynomolgous monkey; type: ADME, Macaca fascicularis; conditions: cynomolgus monkey, in vivo, read-out: Vdss
[48] = Energy of neutralization, pKa of compound; type: physicochemical
DRG neuron = assay: Protection against paclitaxel-induced axon degeneration in C57/Bl6 mouse DRG neurons at 1 uM measured after 72 hrs by immunofluorescence based analysis; type: functional, cell-based

Chain of Voltage-gated inwardly rectifying potassium channel KCNH2 (Q12809 whole entry): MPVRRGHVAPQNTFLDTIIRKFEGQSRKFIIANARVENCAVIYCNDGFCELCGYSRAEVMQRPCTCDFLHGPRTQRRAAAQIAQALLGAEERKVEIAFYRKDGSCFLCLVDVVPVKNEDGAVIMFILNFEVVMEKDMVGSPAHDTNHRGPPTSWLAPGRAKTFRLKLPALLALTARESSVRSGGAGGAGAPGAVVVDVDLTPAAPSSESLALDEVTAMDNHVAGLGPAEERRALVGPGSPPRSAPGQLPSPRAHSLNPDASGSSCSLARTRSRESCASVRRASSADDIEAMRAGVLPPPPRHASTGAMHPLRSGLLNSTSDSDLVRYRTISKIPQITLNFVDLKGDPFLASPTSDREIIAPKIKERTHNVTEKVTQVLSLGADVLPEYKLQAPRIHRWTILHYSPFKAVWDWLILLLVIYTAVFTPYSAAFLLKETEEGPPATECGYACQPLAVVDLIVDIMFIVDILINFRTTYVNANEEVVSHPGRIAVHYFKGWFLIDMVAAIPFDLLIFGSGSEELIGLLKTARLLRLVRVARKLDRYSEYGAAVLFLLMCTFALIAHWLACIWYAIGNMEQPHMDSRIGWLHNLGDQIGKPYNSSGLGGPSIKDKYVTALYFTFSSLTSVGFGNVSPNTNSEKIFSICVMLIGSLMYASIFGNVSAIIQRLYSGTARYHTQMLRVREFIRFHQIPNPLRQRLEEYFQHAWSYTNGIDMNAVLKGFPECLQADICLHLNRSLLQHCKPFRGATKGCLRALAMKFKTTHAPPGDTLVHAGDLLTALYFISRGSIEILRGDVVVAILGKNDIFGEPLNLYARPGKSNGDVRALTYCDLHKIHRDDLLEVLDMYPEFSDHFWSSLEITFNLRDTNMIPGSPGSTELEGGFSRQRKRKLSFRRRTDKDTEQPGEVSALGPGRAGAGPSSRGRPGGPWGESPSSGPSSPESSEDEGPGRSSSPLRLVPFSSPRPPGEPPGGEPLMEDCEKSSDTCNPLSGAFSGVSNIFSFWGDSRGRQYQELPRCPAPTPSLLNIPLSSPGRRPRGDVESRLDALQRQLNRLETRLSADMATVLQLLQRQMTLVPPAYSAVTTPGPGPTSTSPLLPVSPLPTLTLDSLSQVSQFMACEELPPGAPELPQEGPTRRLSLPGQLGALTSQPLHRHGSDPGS
Chain of CYP3A4 (P08684 whole entry): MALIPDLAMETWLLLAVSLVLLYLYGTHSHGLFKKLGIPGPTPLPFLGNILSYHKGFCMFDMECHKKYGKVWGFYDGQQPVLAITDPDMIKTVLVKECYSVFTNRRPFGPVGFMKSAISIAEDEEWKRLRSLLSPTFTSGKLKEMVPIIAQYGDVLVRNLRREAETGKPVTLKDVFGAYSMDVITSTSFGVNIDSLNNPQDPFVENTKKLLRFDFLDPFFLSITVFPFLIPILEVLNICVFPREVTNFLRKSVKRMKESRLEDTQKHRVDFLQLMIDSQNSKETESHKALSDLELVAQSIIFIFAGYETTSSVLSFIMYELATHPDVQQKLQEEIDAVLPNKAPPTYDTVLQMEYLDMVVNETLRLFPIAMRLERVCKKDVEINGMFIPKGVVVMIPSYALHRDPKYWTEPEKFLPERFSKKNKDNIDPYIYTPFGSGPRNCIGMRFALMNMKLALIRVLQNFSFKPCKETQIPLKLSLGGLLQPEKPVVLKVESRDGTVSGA

## CCc1nc(-c2cnc(N)c(C(F)(F)F)c2)c2ccc([C@H]3COCCN3C)cn12
[1]
  half-life: 0.6 h
[2]
  microsomal CLint: 20 µL/min/mg
[3]
  microsomal CLint: 18 µL/min/mg
[4]
  efflux ratio: 1
[5]
  solubility kinetic: 320 µM (≈ 130 µg/mL)
[6]
  Papp A→B: 162 nm/s
[7]
  Kp uu: 0.17
[8]
  CL/F: 4.08 L/h/kg
[9]
  bioavailability: 112%

## Nc1ncc(-c2cc(N3C[C@@H]4C[C@H]3CO4)nc(N3CCC(F)(F)C3)n2)cc1OC(F)F [GDC-0134]
[10]
  IC50: 0.301 µM
[11]
  Ki: 0.0035 µM
[12]
  EC50: 0.475 µM
[13]
  IC50: 0.079 µM
[14]
  Ki: 0.007 µM
[15]
  Emax at 0.74 µM: 75%

## CCn1nc(-c2cnc(N)c(OC(F)F)c2)c2ccn([C@@H]3CCC(F)(F)C[C@@H]3OC)c(=O)c21
[16]
  clearance: 0.498 L/h/kg
[17]
  clearance: 1.44 L/h/kg
[2]
  microsomal CLint: 18 µL/min/mg
[3]
  microsomal CLint: < 3 µL/min/mg
[18]
  bioavailability: 53%
[19]
  Drug metabolism: metabolite_detected
CYP3A4
  inhibition at 0.5 h, 30 µM: 27.5%
[20]
  Vd: 1.6 L/kg
[21]
  microsomal CLint: 5.8 µL/min/mg
[22]
  Fu: 1.5%
[23]
  half-life: 7.2 h
[24]
  Vd: 8.8 L/kg
[25]
  Kp uu: 0.3
CYP3A [26]
  Ki: 170 µM
[27]
  Drug metabolism: metabolite_detected
CYP3A [28]
  kinact: 0.00117 s⁻¹
[29]
  IC50: 0.031 µM
[30]
  Drug metabolism: metabolite_detected
[31]
  half-life: 12 h
[32]
  half-life: 6.6 h
[33]
  bioavailability: 52%
[10]
  IC50: 0.095 µM
[34]
  IC50: 52 µM
[35]
  Vd: 4.3 L/kg
[36]
  clearance: 0.33 L/h/kg
[11]
  Ki: 0.00069 µM
[37]
  IC50: 9 µM
[38]
  concentration at 2 h: 1000 ng/g
[12]
  EC50: 0.363 µM
[13]
  IC50: 0.051 µM
[39]
  Kp uu: 0.6
[40]
  bioavailability: 81%
[41]
  Drug metabolism: metabolite_detected
[42]
  half-life: 4.8 h
[43]
  bioavailability: 57%
[44]
  Drug uptake(free): 14.5 ng/g
[14]
  Ki: 0.015 µM
[15]
  Emax at 0.74 µM: 72%
[45]
  clearance: 0.318 L/h/kg
[46]
  Drug metabolism: metabolite_detected
[47]
  Vd: 4.8 L/kg

## CCc1nc(-c2cnc(N)c(C(F)(F)F)c2)c2ccc(C3CCN(C)CC3)cn12
[1]
  half-life: 3.8 h
[2]
  microsomal CLint: 15 µL/min/mg
[3]
  microsomal CLint: 3 µL/min/mg
[4]
  efflux ratio: 1.6
[48]
  pKa: 9.2
[11]
  Ki: 0.0003 µM
[5]
  solubility kinetic: 268 µM (≈ 108 µg/mL)
[37]
  IC50: < 0.4 µM
[13]
  IC50: 0.023 µM
[6]
  Papp A→B: 106 nm/s
[7]
  Kp uu: 0.18
[8]
  CL/F: 2.58 L/h/kg
[9]
  bioavailability: 85%

## CCc1nc(-c2cnc(N)c(OC(F)(F)F)c2)c2ccc([C@H]3COCCN3C)cn12
[1]
  half-life: 0.8 h
[2]
  microsomal CLint: 1 µL/min/mg
[3]
  microsomal CLint: 6 µL/min/mg
CYP3A4
  inhibition at 0.5 h, 30 µM: 72%
CYP3A [26]
  Ki: 12.4 µM
CYP3A [28]
  kinact: 0.00113 s⁻¹
DRG neuron
  Activity: Active
[4]
  efflux ratio: 0.7
[48]
  pKa: 5.8
[11]
  Ki: 0.0008 µM
[5]
  solubility kinetic: 295 µM (≈ 124 µg/mL)
[37]
  IC50: 16 µM
[12]
  EC50: 0.305 µM
[13]
  IC50: 0.048 µM
[6]
  Papp A→B: 376 nm/s
[7]
  Kp uu: 0.17
[8]
  CL/F: 2.4 L/h/kg
[9]
  bioavailability: 141%
